Assay results published in PubChem BioAssay (NCI).
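Growth conditions: 96-well plates. Treatment: test compound, 48 hours, 5 concentrations. Analysis: linear interpolation between bracketing concentrations; unreached endpoints set to highest concentration. TGI: total growth inhibition.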 Where a SMILES comes first, the peptide text is derived from it. The star is where a group is joined. CH2Cl = ClC*

Assays:
Test in all cases: NCI-60 cell line screen, 48 h
HCC-2998 colon = system: HCC-2998 colon
SK-MEL-5 melanoma = system: SK-MEL-5 melanoma
MCF7 breast = system: MCF7 breast
PC-3 prostate = system: PC-3 prostate
HOP-62 NSCLC = system: HOP-62 NSCLC
786-0 renal = system: 786-0 renal
LOX IMVI melanoma = system: LOX IMVI melanoma
EKVX NSCLC = system: EKVX NSCLC
TK-10 renal = system: TK-10 renal
HCT-15 colon = system: HCT-15 colon
SF-268 CNS = system: SF-268 CNS
HT29 colon = system: HT29 colon
SR leukemia = system: SR leukemia
SK-MEL-2 melanoma = system: SK-MEL-2 melanoma
MDA-N = system: MDA-N
MOLT-4 leukemia = system: MOLT-4 leukemia
MALME-3M melanoma = system: MALME-3M melanoma
RXF 393 renal = system: RXF 393 renal
T-47D breast = system: T-47D breast
A549 NSCLC = system: A549 NSCLC
HOP-92 NSCLC = system: HOP-92 NSCLC
CCRF-CEM leukemia = system: CCRF-CEM leukemia
K-562 leukemia = system: K-562 leukemia
HS 578T breast = system: HS 578T breast
MDA-MB-435 = system: MDA-MB-435
CAKI-1 renal = system: CAKI-1 renal
SK-MEL-28 melanoma = system: SK-MEL-28 melanoma
DU-145 prostate = system: DU-145 prostate
NCI-H226 lung = system: NCI-H226 lung
U251 CNS = system: U251 CNS
KM12 colon = system: KM12 colon
SNB-19 CNS = system: SNB-19 CNS
HCT-116 colon = system: HCT-116 colon
IGROV1 ovarian = system: IGROV1 ovarian
OVCAR-5 ovarian = system: OVCAR-5 ovarian
NCI-H522 lung = system: NCI-H522 lung
UACC-257 melanoma = system: UACC-257 melanoma
NCI/ADR-RES ovarian = system: NCI/ADR-RES ovarian
NCI-H460 lung = system: NCI-H460 lung
SF-295 CNS = system: SF-295 CNS
NCI-H23 lung = system: NCI-H23 lung
M14 melanoma = system: M14 melanoma
COLO 205 colon = system: COLO 205 colon
OVCAR-3 ovarian = system: OVCAR-3 ovarian
MDA-MB-231 breast = system: MDA-MB-231 breast
OVCAR-8 ovarian = system: OVCAR-8 ovarian
SN12C renal = system: SN12C renal
UO-31 renal = system: UO-31 renal
SNB-75 CNS = system: SNB-75 CNS
ACHN renal = system: ACHN renal
HL-60(TB) leukemia = system: HL-60(TB) leukemia
UACC-62 melanoma = system: UACC-62 melanoma
SW-620 colon = system: SW-620 colon
SK-OV-3 ovarian = system: SK-OV-3 ovarian
A498 renal = system: A498 renal
BT-549 breast = system: BT-549 breast
SF-539 CNS = system: SF-539 CNS
RPMI-8226 leukemia = system: RPMI-8226 leukemia
OVCAR-4 ovarian = system: OVCAR-4 ovarian

## CC(=O)NC(CC(C)C)C(=O)NC(Cc1ccccc1)C(=O)CCl (stereo not drawn) (Ac-Leu-Phe-CH2Cl; configuration not given here)
HCC-2998 colon
  TGI: 30.4 µM
SK-MEL-5 melanoma
  TGI: 22.5 µM
MCF7 breast
  TGI: 22.8 µM
PC-3 prostate
  TGI: 30.7 µM
HOP-62 NSCLC
  TGI: 33.2 µM
786-0 renal
  TGI: 17 µM
LOX IMVI melanoma
  TGI: 10.6 µM
EKVX NSCLC
  TGI: 38.4 µM
TK-10 renal
  TGI: 24.1 µM
HCT-15 colon
  TGI: 13.2 µM
SF-268 CNS
  TGI: 50.4 µM
HT29 colon
  TGI: 34.6 µM
SR leukemia
  TGI: > 21.8 µM
SK-MEL-2 melanoma
  TGI: 27.4 µM
MDA-N
  TGI: 32.9 µM
MOLT-4 leukemia
  TGI: 4.53 µM
MALME-3M melanoma
  TGI: 18.4 µM
RXF 393 renal
  TGI: 5.69 µM
T-47D breast
  TGI: > 59.7 µM
A549 NSCLC
  TGI: 41.6 µM
HOP-92 NSCLC
  TGI: 16.5 µM
CCRF-CEM leukemia
  TGI: 3.94 µM
K-562 leukemia
  TGI: 10.7 µM
HS 578T breast
  TGI: 36.4 µM
MDA-MB-435
  TGI: 28 µM
CAKI-1 renal
  TGI: 32.1 µM
SK-MEL-28 melanoma
  TGI: 23.2 µM
DU-145 prostate
  TGI: 17 µM
NCI-H226 lung
  TGI: 39.1 µM
U251 CNS
  TGI: 30.5 µM
KM12 colon
  TGI: 36 µM
SNB-19 CNS
  TGI: 37.7 µM
HCT-116 colon
  TGI: 19.2 µM
IGROV1 ovarian
  TGI: 31.6 µM
OVCAR-5 ovarian
  TGI: 32.4 µM
NCI-H522 lung
  TGI: 7.43 µM
UACC-257 melanoma
  TGI: 22.4 µM
NCI/ADR-RES ovarian
  TGI: 50.1 µM
NCI-H460 lung
  TGI: 43.3 µM
SF-295 CNS
  TGI: 33.9 µM
NCI-H23 lung
  TGI: 30.3 µM
M14 melanoma
  TGI: 21.1 µM
COLO 205 colon
  TGI: > 51.1 µM
OVCAR-3 ovarian
  TGI: 28.3 µM
MDA-MB-231 breast
  TGI: 39.3 µM
OVCAR-8 ovarian
  TGI: 19.6 µM
SN12C renal
  TGI: 27 µM
UO-31 renal
  TGI: 28.4 µM
SNB-75 CNS
  TGI: 28.1 µM
ACHN renal
  TGI: 23.9 µM
HL-60(TB) leukemia
  TGI: > 21.3 µM
UACC-62 melanoma
  TGI: 19 µM
SW-620 colon
  TGI: 9.17 µM
SK-OV-3 ovarian
  TGI: 32.3 µM
A498 renal
  TGI: 33.8 µM
BT-549 breast
  TGI: 28.4 µM
SF-539 CNS
  TGI: 34.5 µM
RPMI-8226 leukemia
  TGI: > 25 µM
OVCAR-4 ovarian
  TGI: 43.6 µM

## Cc1noc(NS(=O)(=O)c2ccc(NC(=O)c3ccc4nc5ccccc5c(Nc5ccc(S(=O)(=O)Nc6onc(C)c6C)cc5)c4c3)cc2)c1C
HCC-2998 colon
  TGI: > 100 µM
SK-MEL-5 melanoma
  TGI: > 100 µM
MCF7 breast
  TGI: > 100 µM
PC-3 prostate
  TGI: > 100 µM
HOP-62 NSCLC
  TGI: > 100 µM
786-0 renal
  TGI: > 100 µM
LOX IMVI melanoma
  TGI: 61.3 µM
EKVX NSCLC
  TGI: > 100 µM
TK-10 renal
  TGI: > 100 µM
HCT-15 colon
  TGI: > 100 µM
SF-268 CNS
  TGI: > 100 µM
HT29 colon
  TGI: > 100 µM
SR leukemia
  TGI: > 100 µM
SK-MEL-2 melanoma
  TGI: > 100 µM
MDA-N
  TGI: > 100 µM
MOLT-4 leukemia
  TGI: > 100 µM
MALME-3M melanoma
  TGI: > 100 µM
RXF 393 renal
  TGI: > 100 µM
T-47D breast
  TGI: > 100 µM
A549 NSCLC
  TGI: > 100 µM
HOP-92 NSCLC
  TGI: > 100 µM
CCRF-CEM leukemia
  TGI: > 100 µM
K-562 leukemia
  TGI: 60.7 µM
HS 578T breast
  TGI: > 100 µM
MDA-MB-435
  TGI: > 100 µM
CAKI-1 renal
  TGI: > 100 µM
SK-MEL-28 melanoma
  TGI: > 100 µM
DU-145 prostate
  TGI: > 100 µM
NCI-H226 lung
  TGI: > 100 µM
U251 CNS
  TGI: > 100 µM
KM12 colon
  TGI: > 100 µM
SNB-19 CNS
  TGI: > 100 µM
HCT-116 colon
  TGI: > 100 µM
IGROV1 ovarian
  TGI: > 100 µM
OVCAR-5 ovarian
  TGI: > 100 µM
NCI-H522 lung
  TGI: > 100 µM
UACC-257 melanoma
  TGI: > 100 µM
NCI/ADR-RES ovarian
  TGI: > 100 µM
NCI-H460 lung
  TGI: > 100 µM
SF-295 CNS
  TGI: > 100 µM
NCI-H23 lung
  TGI: > 100 µM
M14 melanoma
  TGI: > 100 µM
COLO 205 colon
  TGI: > 100 µM
OVCAR-3 ovarian
  TGI: > 100 µM
MDA-MB-231 breast
  TGI: 80.8 µM
OVCAR-8 ovarian
  TGI: > 100 µM
SN12C renal
  TGI: > 100 µM
UO-31 renal
  TGI: > 100 µM
SNB-75 CNS
  TGI: > 100 µM
ACHN renal
  TGI: > 100 µM
HL-60(TB) leukemia
  TGI: > 100 µM
UACC-62 melanoma
  TGI: > 100 µM
SW-620 colon
  TGI: > 100 µM
SK-OV-3 ovarian
  TGI: > 100 µM
A498 renal
  TGI: > 100 µM
BT-549 breast
  TGI: 88.8 µM
SF-539 CNS
  TGI: > 100 µM
RPMI-8226 leukemia
  TGI: > 100 µM
OVCAR-4 ovarian
  TGI: > 100 µM
